The term Kd denotes the concentration at which binding is half-saturated.

We go through 3 molecules from article PMC6145916, “Interaction of mitochondrial fission factor with dynamin related protein 1 governs physiological mitochondrial function in vivo” (Scientific Reports, 2018).

Experiment [1] has as its system neuroblastoma SH-SY5Y cells. The experiment can be described thus: Mitochondrial morphology (Tom20 immunofluorescence), SH-SY5Y. It is filed as cell-based, human. To be noted: 4 µM TAT-P259 or 10 µM Mdivi-1, 30-minute treatment; n = 3, 10 images each. As to the method:
Represented Western blot is cropped from a full blot shown in the Expanded Western Blots section of the Supplementary Information. […] Hoechst 33342 is shown in blue and Tom20 in green (n = 3, 10 images each). Below, quantification of the form factor (degree of branching) and major axis length (length of mitochondria). At least 6,000 mitochondrial fragments were measured for each condition. Mitochondrial reactive oxygen species (ROS) production (MitoSox Red) (c) and mitochondrial membrane potential (TMRM) (d) after overnight treatment with indicated concentrations of peptide or FCCP. Data are from 3 independent experiments per condition normalized to the average no peptide value. (e) Relative mitochondrial ROS (MitoSox Red) signal in GFP positive cells expressing full-length or alanine-substituted P259 at indicated amino acids after two days of transfection. Values are normalized to a GFP empty vector (n = 3, with 3 replicates). […] Data are mean ± s.e. […]
Cells were fixed onto Permanox plastic slides with 4% paraformaldehyde in PBS for 10 minutes at room temperature. Cells were permeabilized in 0.1% Triton X-100 and 1% normal goat serum (blocking buffer) for one hour at room temperature. Permeabilized cells were incubated overnight with primary anti-Tom20 antibody (Santa Cruze Biotech, sc-11415, 1:250 dilution) in a humidified chamber. Slides were subsequently incubated with FITC-conjugated goat anti-rabbit IgG for two hours at room temperature in a light-shielding humidified chamber. Cells were washed with blocking buffer and stained with Hoechst 33342 (Invitrogen, OR, USA, […]). Coverslips were mounted with a Slowfade antifade solution (Invitrogen, OR, USA). Images were acquired using an LSM 700 confocal laser-s canning microsc ope equipped with a Plan Apochromat 63x/1.4 NA oil-immersion objective (Zeiss).
Mitochondrial morphology analysis
High-throughput image analysis of mitochondrial morphology was performed using MATLAB with the Image Processing toolkit. Background illumination, obtained by morphological opening of the image, was subtracted from the original image. The image was then passed through a top - hat transformation to highlight objects from the background followed by a pixel-wis e adaptive low-pas s Wiener filter to remove noise. A 90th percentile threshold was used to convert the image to a binary image. Erroneously large and small objects were removed from the image and morphological features were extracted from the binary objects. Major axis length is defined as th e length of the longest line that can be drawn through a binary object while the minor axis length is defined as the length of the shortest line. The aspect ratio is defined by the major axis length divided by the minor axis length. […]

The subject of another experiment is Drp1. The conditions noted are these: cited from earlier work. The text has this: However, Mdivi-1 cannot distinguish between Drp1′s physiological and pathological activities. […] Strikingly, while inhibiting the interaction between Drp1 and Fis1 slo ...
Another experiment concerns SH-SY5Y cells. The experiment is described as follows: Mitochondrial ROS (MitoSox Red) in GFP positive SH-SY5Y cells expressing P259 or alanine-substituted P259. Format: cell-based, human. The conditions noted are these: P259 sequence alone (no TAT carrier) expressed from vector, two days, relative to empty GFP vector; n = 3, with 3 replicates. How it is done:
Represented Western blot is cropped from a full blot shown in the Expanded Western Blots section of the Supplementary Information. […] Hoechst 33342 is shown in blue and Tom20 in green (n = 3, 10 images each). Below, quantification of the form factor (degree of branching) and major axis length (length of mitochondria). At least 6,000 mitochondrial fragments were measured for each condition. Mitochondrial reactive oxygen species (ROS) production (MitoSox Red) (c) and mitochondrial membrane potential (TMRM) (d) after overnight treatment with indicated concentrations of peptide or FCCP. Data are from 3 independent experiments per condition normalized to the average no peptide value. (e) Relative mitochondrial ROS (MitoSox Red) signal in GFP positive cells expressing full-length or alanine-substituted P259 at indicated amino acids after two days of transfection. Values are normalized to a GFP empty vector (n = 3, with 3 replicates). […] Data are mean ± s.e.
Using mitochondrial ROS as a phenotypic output, we determined which residues of P259 were necessary for its function.
DMI6000B inverted microscope. All mitochondria were imaged with a GFP fi lter. Then, green […]
filter every 30 seconds for 5 minutes. […]
GFP filter (Keyence). […] The GFP and MitoSox signals were measured in a ring around each nucleus. Average MitoSox levels were quantified in […]

Experiment [2] concerns the target T1, recombinant human Drp1 (dynamin related protein 1) (human, UniProt O00429 1-736).
T1 construct: dynamin related protein 1 (Drp1), human, recombinant; details may stand in the Supplementary Methods; also called recombinant Drp1
The experiment is described as follows: graphene surface with transistors measuring electrical conductance. The conditions noted are these: both partners purified.

T1 sequence (O00429 whole entry): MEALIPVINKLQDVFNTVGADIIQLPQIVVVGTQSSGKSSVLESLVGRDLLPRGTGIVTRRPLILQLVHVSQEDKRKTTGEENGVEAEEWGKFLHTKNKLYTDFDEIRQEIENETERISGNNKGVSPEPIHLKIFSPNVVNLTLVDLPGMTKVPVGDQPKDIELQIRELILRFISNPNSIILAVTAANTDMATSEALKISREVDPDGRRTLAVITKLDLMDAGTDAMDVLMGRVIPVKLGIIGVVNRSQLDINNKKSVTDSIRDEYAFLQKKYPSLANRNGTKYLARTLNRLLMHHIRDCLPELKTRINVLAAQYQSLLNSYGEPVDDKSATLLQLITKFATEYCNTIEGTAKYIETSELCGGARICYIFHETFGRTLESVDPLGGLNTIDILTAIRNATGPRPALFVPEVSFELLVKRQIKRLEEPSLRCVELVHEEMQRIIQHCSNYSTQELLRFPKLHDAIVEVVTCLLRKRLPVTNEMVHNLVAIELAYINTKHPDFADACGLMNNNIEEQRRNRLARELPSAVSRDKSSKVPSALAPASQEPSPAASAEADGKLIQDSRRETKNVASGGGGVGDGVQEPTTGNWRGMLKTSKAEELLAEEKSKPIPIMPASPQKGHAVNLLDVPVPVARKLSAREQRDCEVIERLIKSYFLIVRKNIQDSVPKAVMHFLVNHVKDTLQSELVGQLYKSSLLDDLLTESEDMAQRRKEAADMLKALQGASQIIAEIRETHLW

`COc1cc(-n2c(=S)[nH]c3ccccc3c2=O)c(Cl)cc1Cl` [Mdivi-1, reference compound]: the mitochondrial morphology entry in experiment [1] is reported as “These effects were similar to treatment with Mdivi-1”. Also, in the experiment with Drp1, the “GTPase activity of Drp1” value is “inhibitor of the GTPase activity of Drp1”. For IIQLPEIVVV [P259 peptide], the “mitochondrial ROS levels (MitoSox) in GFP-positive cells” value in the experiment with SH-SY5Y cells is “doubled mitochondrial ROS levels”.

B1: P259 (peptide, UniProt O00429 22-31, looked up)
peptide: IIQLPEIVVV
notes: dynamin related protein 1 (Drp1), residues 22-31, with glutamine 27 replaced by glutamate as found in Mff; The text introduces the TAT carrier only for the cell experiments; whether the in vitro peptide carried it may be told in the Supplementary Methods; also called peptide P259
For the molecule B1, the Kd in experiment [2] is 12 nM.
